Source: patent US9340510B2, “Tetrahydroisoquinoline derivatives, pharmaceutical compositions and uses thereof” (Boehringer Ingelheim International GmbH, priority 2014, dated 2016)

Target: human ACC2 (Homo sapiens (Human), UniProt O00763)
Assay: ACC2 assay: spectrophotometric 384 well assay (coupled lactate dehydrogenase/pyruvate kinase)
Format: biochemical
Settings: hACC2 construct lacking the 128 N-terminal amino acids, 25° C., 340 nm
Method: Spectrophotometric 384 Well Assay
Malonyl CoA formation by acetyl CoA carboxylases is stoichiometrically linked to the consumption of ATP. ACC2 activity is measured in a […] kinetic method measuring ADP generated during the ACC reaction using a coupled lactate dehydrogenase/pyruvate kinase reaction.
For biological testing, a human ACC2 construct which lacks the 128 amino acids at the N-terminus for increased solubility (nt 385-6966 in Genbank entry AJ575592) is cloned. The protein is then expressed in insect cells using a baculoviral expression system. Protein purification is performed by anion exchange.
All compounds are dissolved in dimethyl sulfoxide (DMSO) to a concentration of 10 mM.
Assay reactions are then carried out in 384-well plates, with hACC2 in an appropriate dilution and at final assay concentrations (f.c.) of 100 mM Tris (pH 7.5), 10 mM trisodium citrate, 25 mM KHCO3, 10 mM MgCl2, 0.5 mg/ml BSA, 3.75 mM reduced L-glutathione, 15 U/ml lactate dehydrogenase, 0.5 mM phosphoenolpyruvate, 15 U/ml pyruvate kinase, compounds at different concentrations at final DMSO concentrations of 1%.
The enzymatic reaction is then started by addition of a mixture of NADH, acetyl Coenzyme A (both […].) and ATP (500 uM f.c.). The decrease of the optical density (slope S) is then determined at 25° C. at a wavelength of 340 nm over 15 minutes in a spectrophotometric reader.
Each assay microtiter plate contains wells with vehicle instead of compound as controls for the non-inhibited enzyme (100% CTL; ‘HIGH’) and wells without acetyl-CoA as controls for non-specific NADH degradation (0% CTL; ‘LOW’).
The slope S is used for calculation of % CTL=(S(compound)−S(‘LOW’))/(S(‘HIGH’)−S(‘LOW’))*100. Compounds will give values between 100% CTL (no inhibition) and 0% CTL (complete inhibition).
For IC50 value determination, the sample slope in the presence of the test compound after subtraction of the low controls (S(compound)−S(‘LOW’)) are used.
An IC50 value is derived from the compound slopes at different dosages after subtraction of the low controls (S(compound)-S(‘LOW’)) by non-linear regression curve fitting (equation y=(A+((B−A)/(1+((C/x)^D))))).

human ACC2, sequence (O00763 129-2458): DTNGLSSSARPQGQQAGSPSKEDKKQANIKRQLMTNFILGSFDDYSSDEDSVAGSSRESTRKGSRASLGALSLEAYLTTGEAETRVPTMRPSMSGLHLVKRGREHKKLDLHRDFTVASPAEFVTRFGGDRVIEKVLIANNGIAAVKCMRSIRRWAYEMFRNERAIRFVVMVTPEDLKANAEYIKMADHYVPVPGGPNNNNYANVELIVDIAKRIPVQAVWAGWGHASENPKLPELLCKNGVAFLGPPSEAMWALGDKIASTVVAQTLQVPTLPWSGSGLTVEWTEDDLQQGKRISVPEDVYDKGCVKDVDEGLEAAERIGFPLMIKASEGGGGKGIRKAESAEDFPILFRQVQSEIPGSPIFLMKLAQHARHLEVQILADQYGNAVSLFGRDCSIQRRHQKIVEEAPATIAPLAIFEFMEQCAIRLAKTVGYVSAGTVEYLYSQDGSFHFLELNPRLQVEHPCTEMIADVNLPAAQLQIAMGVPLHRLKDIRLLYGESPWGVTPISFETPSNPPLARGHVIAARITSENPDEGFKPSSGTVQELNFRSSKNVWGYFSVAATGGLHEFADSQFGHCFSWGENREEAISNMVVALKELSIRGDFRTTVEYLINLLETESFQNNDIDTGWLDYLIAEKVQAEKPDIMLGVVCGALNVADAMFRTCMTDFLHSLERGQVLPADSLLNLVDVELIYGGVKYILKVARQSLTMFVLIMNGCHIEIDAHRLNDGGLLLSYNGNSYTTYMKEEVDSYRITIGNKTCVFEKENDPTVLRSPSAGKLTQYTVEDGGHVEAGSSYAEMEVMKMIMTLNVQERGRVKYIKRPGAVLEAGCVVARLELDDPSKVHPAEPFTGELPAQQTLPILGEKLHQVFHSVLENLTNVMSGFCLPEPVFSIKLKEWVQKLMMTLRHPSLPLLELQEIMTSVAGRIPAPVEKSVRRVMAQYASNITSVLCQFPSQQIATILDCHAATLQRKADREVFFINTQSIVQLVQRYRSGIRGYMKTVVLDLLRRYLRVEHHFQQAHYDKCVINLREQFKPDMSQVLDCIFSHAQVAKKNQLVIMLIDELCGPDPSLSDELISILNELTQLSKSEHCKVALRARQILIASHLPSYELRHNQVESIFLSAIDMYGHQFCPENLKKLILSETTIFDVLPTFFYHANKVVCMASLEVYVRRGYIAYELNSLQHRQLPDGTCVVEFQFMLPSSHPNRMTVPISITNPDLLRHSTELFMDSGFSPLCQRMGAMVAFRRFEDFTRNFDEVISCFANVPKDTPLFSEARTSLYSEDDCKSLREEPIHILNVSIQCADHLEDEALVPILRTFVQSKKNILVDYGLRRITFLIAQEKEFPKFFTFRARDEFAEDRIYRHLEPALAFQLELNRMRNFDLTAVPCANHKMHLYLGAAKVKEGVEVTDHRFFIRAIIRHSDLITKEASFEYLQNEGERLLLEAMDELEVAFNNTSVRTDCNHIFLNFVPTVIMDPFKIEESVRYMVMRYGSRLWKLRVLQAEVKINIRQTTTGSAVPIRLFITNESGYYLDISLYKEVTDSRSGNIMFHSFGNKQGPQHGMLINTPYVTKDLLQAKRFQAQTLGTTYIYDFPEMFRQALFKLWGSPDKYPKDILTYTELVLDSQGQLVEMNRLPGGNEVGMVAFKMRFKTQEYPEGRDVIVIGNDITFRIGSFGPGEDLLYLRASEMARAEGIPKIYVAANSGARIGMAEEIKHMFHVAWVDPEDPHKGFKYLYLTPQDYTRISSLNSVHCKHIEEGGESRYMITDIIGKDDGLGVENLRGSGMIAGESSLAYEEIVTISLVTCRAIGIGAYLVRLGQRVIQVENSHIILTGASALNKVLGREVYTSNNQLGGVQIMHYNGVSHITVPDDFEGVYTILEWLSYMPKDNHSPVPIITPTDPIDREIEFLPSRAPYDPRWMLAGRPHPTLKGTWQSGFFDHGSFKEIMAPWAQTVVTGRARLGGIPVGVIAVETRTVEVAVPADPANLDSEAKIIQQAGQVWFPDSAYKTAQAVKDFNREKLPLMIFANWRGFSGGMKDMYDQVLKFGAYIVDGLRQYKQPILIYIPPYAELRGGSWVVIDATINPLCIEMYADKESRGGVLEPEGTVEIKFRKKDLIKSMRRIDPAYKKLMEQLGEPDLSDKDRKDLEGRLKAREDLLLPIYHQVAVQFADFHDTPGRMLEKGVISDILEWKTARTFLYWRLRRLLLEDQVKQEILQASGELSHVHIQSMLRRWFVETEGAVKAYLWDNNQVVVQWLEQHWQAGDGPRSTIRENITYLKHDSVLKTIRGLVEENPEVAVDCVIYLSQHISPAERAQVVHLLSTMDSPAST

Compound	IC50
CCCOc1ccc2c(c1OC)CCN(Cc1ccc([C@H](C)NC(C)=O)cc1)C2 [Example 1.074]	0.079 µM
COc1c(OCC2CC(F)(F)C2)ccc2c1CCN(Cc1ccc([C@H](C)NC(C)=O)cc1)C2 [Example 1.075]	0.055 µM
CC(=O)N[C@@H](C)c1ccc(CN2CCc3cc(Cl)ccc3C2)cc1 [Example 1.081]	0.232 µM
CCOc1ccc2c(c1OC)CCN(Cc1ccc([C@H](C)NC(C)=O)cc1)C2C (stereo partly shown) [Example 1.083]	0.449 µM
COc1c(OC2CCC2)ccc2c1CCN(Cc1ccc([C@H](C)NC(C)=O)cc1)C2C (stereo partly shown) [Example 1.085]	0.28 µM
COc1c(OCC2CC2)ccc2c1CCN(Cc1ccc([C@H](C)NC(C)=O)cc1)C2C (stereo partly shown) [Example 1.086]	0.227 µM
CC(=O)N[C@@H](C)c1ccc(CN2CCc3cc(OCC4CC4)ccc3C2)cc1 [Example 1.088]	0.012 µM
CC(=O)N[C@@H](C)c1ccc(CN2CC(=O)c3cc(OCc4ccccc4)ccc3C2)cc1 [Example 1.089]	0.089 µM
CC(=O)N[C@@H](C)c1ccc(CN2CC(=O)c3cc(OCC4CC4)ccc3C2)cc1 [Example 1.090]	0.065 µM
CC(=O)N[C@@H](C)c1ccc(CN2Cc3ccc(OCC4CC4(F)F)cc3C(F)C2)cc1 (stereo partly shown) [Example 1.092]	0.016 µM
CC(=O)N[C@@H](C)c1ccc(CN2Cc3ccc(OCC4CC4)cc3C(F)C2)cc1 (stereo partly shown) [Example 1.093]	0.02 µM
COc1ccc2c(c1F)CCN(Cc1ccc([C@H](C)NC(C)=O)cc1)C2C (stereo partly shown) [Example 1.095]	0.494 µM
CC(=O)N[C@@H](C)c1ccc(CN2Cc3ccc(OCC4CC4)cc3C(O)C2)cc1 (stereo partly shown) [Example 1.096]	0.315 µM
CC(=O)N[C@@H](C)c1ccc(CN2Cc3ccc(OCC4CC4)cc3C(F)(F)C2)cc1 [Example 1.097]	0.038 µM
CC(=O)N[C@@H](C)c1ccc(CN2Cc3ccc(OC(C)C)cc3C(F)C2)cc1 (stereo partly shown) [Example 1.100]	0.03 µM
CC(=O)N[C@@H](C)c1ccc(CN2Cc3ccc(OCC4CCC4)cc3C(O)C2)cc1 (stereo partly shown) [Example 1.101]	0.055 µM
COc1cccc2c1CCN(Cc1ccc([C@H](C)NC(=O)c3cncs3)cc1)C2 [Example 2.001, Thiazole-5-carboxylic acid {(S)-1-[4-(5-methoxy-3,4-dihydro-1H-isoquinolin-2-ylmethyl)-phenyl]-ethyl}-amide]	0.135 µM
COc1cccc2c1CCN(Cc1ccc([C@H](C)NC(=O)c3sc(NC(C)=O)nc3C)cc1)C2 [Example 2.003]	0.157 µM

Compound	IC50
C[C@H](NC(=O)CC(=O)N(C)C)c1ccc(CN2CCc3cc(OCC4CC4)ccc3C2)cc1 [Example 2.03]	0.459 µM
COc1cccc2c1CCN(Cc1ccc([C@H](C)NC(=O)c3cn[nH]c3)cc1)C2 [Example 2.004]	0.184 µM
C[C@H](NC(=O)CC#N)c1ccc(CN2CC(=O)c3cc(OCC4CC4(F)F)ccc3C2)cc1 (stereo partly shown) [Example 2.04]	0.45 µM
C[C@H](NC(=O)c1cn[nH]c1)c1ccc(CN2CCc3c(cccc3C(F)(F)F)C2)cc1 [Example 2.008]	0.1 µM
C[C@H](NC(=O)C1CC1)c1ccc(CN2CCc3c(Br)cccc3C2)cc1 [Example 2.009]	0.249 µM
C[C@H](NC(=O)c1cncs1)c1ccc(CN2CCc3c(Br)cccc3C2)cc1 [Example 2.010]	0.179 µM
CCC(=O)N[C@@H](C)c1ccc(CN2CCc3c(Br)cccc3C2)cc1 [Example 2.011]	0.194 µM
C[C@H](NC(=O)c1cncs1)c1ccc(CN2CCc3c(cccc3OC3CCC3)C2)cc1 [Example 2.014]	0.144 µM
C[C@H](NC(=O)C1CC1)c1ccc(CN2CCc3cc(OCC4CC(F)(F)C4)ccc3C2)cc1 [Example 2.015]	0.038 µM
C[C@H](NC(=O)C1CC1)c1ccc(CN2CCc3cc(OCC4CCC4)ccc3C2)cc1 [Example 2.017]	0.038 µM
CC(C)COc1ccc2c(c1)CCN(Cc1ccc([C@H](C)NC(=O)C3CC3)cc1)C2 [Example 2.019]	0.057 µM
C[C@H](NC(=O)Cc1cncnc1)c1ccc(CN2CCc3cc(OCC4CC4)ccc3C2)cc1 [Example 2.022]	0.082 µM
C[C@H](NC(=O)C1(O)CC1)c1ccc(CN2CCc3cc(OCC4CC4)ccc3C2)cc1 [Example 2.024]	0.15 µM
C[C@H](NC(=O)Cc1cncnc1)c1ccc(CN2CCc3cc(OC[C@@H]4CC4(F)F)ccc3C2)cc1 [Example 2.026]	0.081 µM
CC(O)C(=O)N[C@@H](C)c1ccc(CN2CCc3cc(OC[C@@H]4CC4(F)F)ccc3C2)cc1 (stereo partly shown) [Example 2.027]	0.13 µM
C[C@H](NC(=O)C1CCC(=O)N1)c1ccc(CN2CCc3cc(OC[C@@H]4CC4(F)F)ccc3C2)cc1 (stereo partly shown) [Example 2.029]	0.329 µM
C[C@H](NC(=O)CC(=O)N(C)C)c1ccc(CN2CCc3cc(OC[C@@H]4CC4(F)F)ccc3C2)cc1 [Example 2.031]	0.447 µM

More lines, in order of falling IC50, values ahead:

IC50	Compound
0.421 µM	CC(=O)N[C@@H](C)c1ccc(CN2Cc3ccc(OC4CCC4)cc3C(O)C2)cc1 (stereo partly shown) [Example 1.099]
0.396 µM	COc1ccc2c(c1F)CCN(Cc1ccc([C@H](C)NC(C)=O)cc1)C2 [Example 1.080]
0.392 µM	CC(=O)N[C@@H](C)c1ccc(CN2Cc3ccc(OC(C)C)cc3C(O)C2)cc1 (stereo partly shown) [Example 1.098]
0.34 µM	COc1c(OCC(F)F)ccc2c1CCN(Cc1ccc([C@H](C)NC(C)=O)cc1)C2 [Example 1.071]
0.299 µM	C[C@H](NC(=O)C1CC1)c1ccc(CN2CCc3cc(OCCCF)ccc3C2)cc1 [Example 2.016]
0.296 µM	COC1CN(Cc2ccc([C@H](C)NC(C)=O)cc2)Cc2ccc(OCC3CC3)cc21 (stereo partly shown) [Example 1.094]
0.263 µM	COc1c(OCC2CC2(F)F)ccc2c1CCN(Cc1ccc([C@H](C)NC(C)=O)cc1)C2C (stereo partly shown) [Example 1.084]
0.237 µM	COc1cccc2c1CCN(Cc1ccc([C@H](C)NC(=O)C3CC3)cc1)C2 [Example 2.002]
0.217 µM	C[C@H](NC(=O)C1(O)CC1)c1ccc(CN2CCc3cc(OC[C@@H]4CC4(F)F)ccc3C2)cc1 [Example 2.028]
0.189 µM	COc1c(OCC2CC(F)(F)C2)ccc2c1CCN(Cc1ccc([C@H](C)NC(C)=O)cc1)C2C (stereo partly shown) [Example 1.087]
0.168 µM	CC(O)C(=O)N[C@@H](C)c1ccc(CN2CCc3cc(OCC4CC4)ccc3C2)cc1 (stereo partly shown) [Example 2.021]
0.166 µM	CCC(=O)N[C@@H](C)c1ccc(CN2CCc3c(cccc3OC3CCC3)C2)cc1 [Example 2.013]
0.145 µM	COc1c(OC2CCC2)ccc2c1CCN(Cc1ccc([C@H](C)NC(C)=O)cc1)C2 [Example 1.070]
0.141 µM	COc1c(OCCC(F)F)ccc2c1CCN(Cc1ccc([C@H](C)NC(C)=O)cc1)C2 [Example 1.072]
0.136 µM	CC(=O)N[C@@H](C)c1ccc(CN2CCc3c(ccc(OC(C)C)c3Br)C2)cc1 [Example 1.079]
0.13 µM	CC(=O)N[C@@H](C)c1ccc(CN2Cc3ccc(OCC4CC4(F)F)cc3C(O)C2)cc1 (stereo partly shown) [Example 1.091]
0.105 µM	CC(=O)Nc1nc(C)c(C(=O)N[C@@H](C)c2ccc(CN3CCc4c(cccc4C(F)(F)F)C3)cc2)s1 [Example 2.005]
0.104 µM	C[C@H](NC(=O)C1CC1)c1ccc(CN2CCc3c(cccc3C(F)(F)F)C2)cc1 [Example 2.007]
0.097 µM	CC(=O)Nc1nc(C)c(C(=O)N[C@@H](C)c2ccc(CN3CCc4c(cccc4OC4CCC4)C3)cc2)s1 [Example 2.012]
0.089 µM	C[C@H](NC(=O)CO)c1ccc(CN2CCc3cc(OC[C@@H]4CC4(F)F)ccc3C2)cc1 [Example 2.025]
0.085 µM	C[C@H](NC(=O)c1cncs1)c1ccc(CN2CCc3c(cccc3C(F)(F)F)C2)cc1 [Example 2.006]
0.082 µM	C[C@H](NC(=O)CO)c1ccc(CN2CCc3cc(OCC4CC4)ccc3C2)cc1 [Example 2.023]
0.068 µM	COc1c(OCC2CC2)ccc2c1CCN(Cc1ccc([C@H](C)NC(C)=O)cc1)C2 [Example 1.076]
0.067 µM	CC(=O)N[C@@H](C)c1ccc(CN2CCc3c(ccc(Cl)c3Cl)C2)cc1 [Example 1.078]
0.047 µM	C[C@H](NC(=O)C1CC1)c1ccc(CN2CCc3cc(OCCC4CC4)ccc3C2)cc1 [Example 2.018]
0.04 µM	COc1c(OCC2CCC2)ccc2c1CCN(Cc1ccc([C@H](C)NC(C)=O)cc1)C2 [Example 1.073]
0.04 µM	COc1c(OCCC2CC2)ccc2c1CCN(Cc1ccc([C@H](C)NC(C)=O)cc1)C2 [Example 1.077]
0.039 µM	CC(=O)N[C@@H](C)c1ccc(CN2CCc3cc(OCC4CC4(F)F)ccc3C2C)cc1 (stereo partly shown) [Example 1.082]
0.028 µM	CC(=O)Nc1nc(C)c(C(=O)N[C@@H](C)c2ccc(CN3CCc4cc(OCC5CC5(F)F)ccc4C3)cc2)s1 (stereo partly shown) [Example 2.020]
